According to ChEMBL document CHEMBL1148751, “Optimization of the indenone ring of indenoisoquinoline topoisomerase I inhibitors” (2007):

Tests used:
Type in all cases: functional
DU-145 = test: Cytotoxicity against human DU145 cells
SN12C = test: Cytotoxicity against human SN12C cells
HCT-116 = test: Cytotoxicity against human HCT116 cells
SF-539 = test: Cytotoxicity against human SF539 cells
HOP-62 = test: Cytotoxicity against human HOP62 cells
OVCAR-3 = test: Cytotoxicity against human OVCAR-3 cells
UACC-62 = test: Cytotoxicity against human UACC62 cells
MDA-MB-435 = test: Cytotoxicity against human MDA-MB-435 cells

With `NCCCn1c2c(c3ccc([N+](=O)[O-])cc3c1=O)C(=O)c1ccccc1-2` the GI50 (DU-145) was 0.014 µM, the GI50 (SN12C) was 0.009 µM and the GI50 (HCT-116) was < 0.005 µM.

`CCc1ccc2c(c1)C(=O)c1c-2n(CCCN=[N+]=[N-])c(=O)c2cc(OC)c(OC)cc12` was tested, and the GI50 (SF-539) was 57.5 µM, the GI50 (HOP-62) was 56.2 µM and the GI50 (DU-145) was > 100 µM. For the same compound, the GI50 (OVCAR-3) was > 100 µM, the GI50 (UACC-62) was 91.2 µM and the GI50 (SN12C) was > 100 µM. For the same compound, the GI50 (MDA-MB-435) was > 100 µM.

Work on `COc1cc2c3c(n(CCCCl)c(=O)c2cc1OC)-c1ccc(C#N)cc1C3=O` yielded a GI50 (SF-539) of 7.24 µM, a GI50 (HOP-62) of 14.8 µM and a GI50 (DU-145) of 10.7 µM. For the same compound, the GI50 (OVCAR-3) was 12.9 µM, the GI50 (UACC-62) was 6.76 µM and the GI50 (SN12C) was 22.9 µM. For the same compound, the GI50 (MDA-MB-435) was > 100 µM and the GI50 (HCT-116) was 15.1 µM.

In the case of `COc1cc2c3c(n(CCCN=[N+]=[N-])c(=O)c2cc1OC)-c1ccccc1C3=O`, the GI50 (SF-539) is reported as 4.68 µM, the GI50 (HOP-62) is reported as 3.55 µM and the GI50 (DU-145) is reported as 28.2 µM. For the same compound, the GI50 (OVCAR-3) was 4.57 µM, the GI50 (UACC-62) was 2.63 µM and the GI50 (SN12C) was 13.8 µM. The GI50 (MDA-MB-435) was 9.77 µM and the GI50 (HCT-116) was 1.82 µM.

In the case of `N#Cc1ccc2c(c1)C(=O)c1c-2n(CCCCl)c(=O)c2cc([N+](=O)[O-])ccc12`, the GI50 (SF-539) is reported as 2.63 µM, the GI50 (HOP-62) is reported as 2.57 µM and the GI50 (DU-145) is reported as 2.75 µM. The GI50 (OVCAR-3) was 8.71 µM, the GI50 (UACC-62) was 1.12 µM and the GI50 (SN12C) was 5.89 µM. The GI50 (MDA-MB-435) was > 100 µM and the GI50 (HCT-116) was 1.82 µM.

Compound `Cc1ccc(S(=O)(=O)Oc2ccc3c(c2)C(=O)c2c-3n(CCCBr)c(=O)c3cc([N+](=O)[O-])ccc23)cc1` has a GI50 (SF-539) of 50.1 µM, a GI50 (HOP-62) of 7.59 µM and a GI50 (DU-145) of 58.9 µM. The GI50 (OVCAR-3) was 81.3 µM, the GI50 (UACC-62) was 23.4 µM and the GI50 (SN12C) was > 100 µM. For the same compound, the GI50 (MDA-MB-435) was > 100 µM and the GI50 (HCT-116) was > 100 µM.

Compound `COc1cc2c3c(n(CCCN)c(=O)c2cc1OC)-c1ccc([N+](=O)[O-])cc1C3=O` has a GI50 (SF-539) of 3.72 µM, a GI50 (HOP-62) of 0.617 µM and a GI50 (DU-145) of 2.09 µM. For the same compound, the GI50 (OVCAR-3) was 16.6 µM, the GI50 (UACC-62) was 11.5 µM and the GI50 (SN12C) was 11.7 µM. The GI50 (MDA-MB-435) was 15.8 µM and the GI50 (HCT-116) was 1.32 µM.

Compound `COc1cc2c3c(n(CCCN)c(=O)c2cc1OC)-c1ccc(N(C)C)cc1C3=O` has a GI50 (SF-539) of 1.9 µM, a GI50 (HOP-62) of 17 µM and a GI50 (DU-145) of 2.4 µM. The GI50 (OVCAR-3) was 17.8 µM, the GI50 (UACC-62) was 21.9 µM and the GI50 (SN12C) was 17 µM. The GI50 (MDA-MB-435) was 17.8 µM and the GI50 (HCT-116) was 3.63 µM.

In the case of `O=C1c2ccccc2-c2c1c1ccc([N+](=O)[O-])cc1c(=O)n2CCCCl`, the GI50 (HOP-62) is reported as 43.6 µM.

Compound `COc1cc2c3c(n(CCCN)c(=O)c2cc1OC)-c1ccccc1C3=O` has a GI50 (SF-539) of 2.82 µM, a GI50 (HOP-62) of 0.151 µM and a GI50 (DU-145) of 2.63 µM. The GI50 (OVCAR-3) was 0.085 µM, the GI50 (UACC-62) was 2.88 µM and the GI50 (SN12C) was 0.794 µM. For the same compound, the GI50 (MDA-MB-435) was 0.631 µM and the GI50 (HCT-116) was < 0.01 µM.

With `COc1cc2c3c(n(CCCBr)c(=O)c2cc1OC)-c1ccc(F)cc1C3=O` the GI50 (SF-539) was 3.55 µM, the GI50 (HOP-62) was 4.17 µM and the GI50 (DU-145) was 4.36 µM. For the same compound, the GI50 (OVCAR-3) was 24.5 µM, the GI50 (UACC-62) was 3.89 µM and the GI50 (SN12C) was 15.5 µM. The GI50 (MDA-MB-435) was 43.7 µM and the GI50 (HCT-116) was 5.75 µM.

For `COc1ccc2c(c1)C(=O)c1c-2n(CCCN=[N+]=[N-])c(=O)c2cc([N+](=O)[O-])ccc12`, the GI50 (SF-539) was < 0.001 µM, the GI50 (HOP-62) was < 0.001 µM and the GI50 (DU-145) was < 0.001 µM. For the same compound, the GI50 (OVCAR-3) was 0.155 µM, the GI50 (MDA-MB-435) was 0.251 µM and the GI50 (HCT-116) was < 0.001 µM.

`COc1cc2c3c(n(C)c(=O)c2cc1OC)-c1cc2c(cc1C3=O)OCO2` was tested, and the GI50 (HOP-62) was 1.3 µM, the GI50 (DU-145) was 37 µM and the GI50 (UACC-62) was 4.2 µM. The GI50 (SN12C) was 68 µM, the GI50 (MDA-MB-435) was 96 µM and the GI50 (HCT-116) was 35 µM.

Compound `COc1cc2c3c(n(CCCN)c(=O)c2cc1OC)-c1ccc(N)cc1C3=O` has a GI50 (SF-539) of 0.316 µM, a GI50 (DU-145) of 2.4 µM and a GI50 (OVCAR-3) of 1.82 µM. For the same compound, the GI50 (UACC-62) was 1.38 µM, the GI50 (SN12C) was 2.57 µM and the GI50 (MDA-MB-435) was 4.17 µM. The GI50 (HCT-116) was 0.263 µM.

For `COC(=O)c1ccc2c(c1)C(=O)c1c-2n(CCCCl)c(=O)c2cc(OC)c(OC)cc12`, the GI50 (HOP-62) was > 100 µM, the GI50 (DU-145) was > 100 µM and the GI50 (OVCAR-3) was > 100 µM. For the same compound, the GI50 (UACC-62) was > 100 µM, the GI50 (SN12C) was > 100 µM and the GI50 (MDA-MB-435) was > 100 µM. The GI50 (HCT-116) was > 100 µM.

In the case of `CCc1ccc2c(c1)C(=O)c1c-2n(CCCN)c(=O)c2cc(OC)c(OC)cc12`, the GI50 (SF-539) is reported as 1.62 µM, the GI50 (HOP-62) is reported as 1.82 µM and the GI50 (DU-145) is reported as 1.62 µM. For the same compound, the GI50 (OVCAR-3) was 1.51 µM, the GI50 (UACC-62) was 1.82 µM and the GI50 (SN12C) was 1.74 µM. For the same compound, the GI50 (MDA-MB-435) was 2 µM.

For `NCCCn1c2c(c3ccc([N+](=O)[O-])cc3c1=O)C(=O)c1cc(Cl)ccc1-2`, the GI50 (SF-539) was < 0.01 µM, the GI50 (HOP-62) was < 0.01 µM and the GI50 (DU-145) was < 0.01 µM. For the same compound, the GI50 (UACC-62) was < 0.01 µM, the GI50 (SN12C) was < 0.01 µM and the GI50 (HCT-116) was < 0.01 µM.

`COc1ccc2c(c1)C(=O)c1c-2n(CCCN)c(=O)c2cc([N+](=O)[O-])ccc12` was tested, and the GI50 (SF-539) was < 0.01 µM, the GI50 (HOP-62) was < 0.01 µM and the GI50 (UACC-62) was < 0.01 µM. The GI50 (SN12C) was < 0.01 µM and the GI50 (HCT-116) was < 0.01 µM.

`O=C1c2cc(F)ccc2-c2c1c1ccc([N+](=O)[O-])cc1c(=O)n2CCCBr` was tested, and the GI50 (HOP-62) was 2.29 µM, the GI50 (DU-145) was 3.39 µM and the GI50 (OVCAR-3) was 46.8 µM. It also gave a GI50 (UACC-62) of 2.29 µM, a GI50 (SN12C) of 27.5 µM and a GI50 (MDA-MB-435) of 37.2 µM. It also gave a GI50 (HCT-116) of 7.24 µM.
